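Cultured in 96-well plates, cells were exposed to test compound for 48 hours across five concentrations. The concentration for 50% growth inhibition is given as GI50. Definition used: TGI = concentration required for complete inhibition of growth.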
How the values were obtained:
Assay in all cases: growth of human tumour cells (NCI), 48 h
UO-31 renal = system: UO-31 renal
OVCAR-4 ovarian = system: OVCAR-4 ovarian
U251 CNS = system: U251 CNS
KM12 colon = system: KM12 colon
SNB-75 CNS = system: SNB-75 CNS
OVCAR-3 ovarian = system: OVCAR-3 ovarian
HS 578T breast = system: HS 578T breast
HL-60(TB) leukemia = system: HL-60(TB) leukemia
NCI-H522 lung = system: NCI-H522 lung
SK-OV-3 ovarian = system: SK-OV-3 ovarian
SR leukemia = system: SR leukemia
COLO 205 colon = system: COLO 205 colon
BT-549 breast = system: BT-549 breast
NCI/ADR-RES ovarian = system: NCI/ADR-RES ovarian
HOP-62 NSCLC = system: HOP-62 NSCLC
SF-268 CNS = system: SF-268 CNS
MCF7 breast = system: MCF7 breast
OVCAR-8 ovarian = system: OVCAR-8 ovarian
CAKI-1 renal = system: CAKI-1 renal
TK-10 renal = system: TK-10 renal
SW-620 colon = system: SW-620 colon
NCI-H226 lung = system: NCI-H226 lung
CCRF-CEM leukemia = system: CCRF-CEM leukemia
NCI-H23 lung = system: NCI-H23 lung
NCI-H460 lung = system: NCI-H460 lung
EKVX NSCLC = system: EKVX NSCLC
SNB-19 CNS = system: SNB-19 CNS
HOP-92 NSCLC = system: HOP-92 NSCLC
MOLT-4 leukemia = system: MOLT-4 leukemia
HCT-116 colon = system: HCT-116 colon
M14 melanoma = system: M14 melanoma
UACC-257 melanoma = system: UACC-257 melanoma
SF-295 CNS = system: SF-295 CNS
HCC-2998 colon = system: HCC-2998 colon
OVCAR-5 ovarian = system: OVCAR-5 ovarian
RPMI-8226 leukemia = system: RPMI-8226 leukemia
HT29 colon = system: HT29 colon
T-47D breast = system: T-47D breast
MALME-3M melanoma = system: MALME-3M melanoma
PC-3 prostate = system: PC-3 prostate
MDA-MB-231 breast = system: MDA-MB-231 breast
RXF 393 renal = system: RXF 393 renal
SN12C renal = system: SN12C renal
UACC-62 melanoma = system: UACC-62 melanoma
A498 renal = system: A498 renal
SF-539 CNS = system: SF-539 CNS
LOX IMVI melanoma = system: LOX IMVI melanoma
HCT-15 colon = system: HCT-15 colon
SK-MEL-5 melanoma = system: SK-MEL-5 melanoma
ACHN renal = system: ACHN renal
DU-145 prostate = system: DU-145 prostate
786-0 renal = system: 786-0 renal
SK-MEL-28 melanoma = system: SK-MEL-28 melanoma
K-562 leukemia = system: K-562 leukemia
A549 NSCLC = system: A549 NSCLC
SK-MEL-2 melanoma = system: SK-MEL-2 melanoma

SMILES: COc1ccc(-c2oc(=O)ccc2-c2cc(OC)c(OC)c(OC)c2)cc1O
- GI50 (UO-31 renal): 3.72 µM
- TGI (UO-31 renal): > 51.1 µM
- GI50 (OVCAR-4 ovarian): 6.65 µM
- TGI (OVCAR-4 ovarian): > 100 µM
- GI50 (U251 CNS): 1.1 µM
- TGI (U251 CNS): > 100 µM
- GI50 (KM12 colon): 0.507 µM
- TGI (KM12 colon): > 48.7 µM
- GI50 (SNB-75 CNS): 1.26 µM
- TGI (SNB-75 CNS): > 100 µM
- GI50 (OVCAR-3 ovarian): 0.463 µM
- TGI (OVCAR-3 ovarian): 3.55 µM
- GI50 (HS 578T breast): 1.51 µM
- TGI (HS 578T breast): > 29.4 µM
- GI50 (HL-60(TB) leukemia): 0.407 µM
- TGI (HL-60(TB) leukemia): 2.03 µM
- GI50 (NCI-H522 lung): 0.425 µM
- TGI (NCI-H522 lung): 3.45 µM
- GI50 (SK-OV-3 ovarian): 1.65 µM
- TGI (SK-OV-3 ovarian): > 42.6 µM
- GI50 (SR leukemia): 0.267 µM
- TGI (SR leukemia): > 23.8 µM
- GI50 (COLO 205 colon): 6.78 µM
- TGI (COLO 205 colon): 36 µM
- GI50 (BT-549 breast): 1.52 µM
- TGI (BT-549 breast): > 38.5 µM
- GI50 (NCI/ADR-RES ovarian): 1.48 µM
- TGI (NCI/ADR-RES ovarian): > 100 µM
- GI50 (HOP-62 NSCLC): 5.37 µM
- TGI (HOP-62 NSCLC): > 100 µM
- GI50 (SF-268 CNS): 2.04 µM
- TGI (SF-268 CNS): > 72.1 µM
- GI50 (MCF7 breast): 0.421 µM
- TGI (MCF7 breast): > 53.6 µM
- GI50 (OVCAR-8 ovarian): 4.34 µM
- TGI (OVCAR-8 ovarian): > 100 µM
- GI50 (CAKI-1 renal): 3.08 µM
- TGI (CAKI-1 renal): > 80.8 µM
- GI50 (TK-10 renal): 14.1 µM
- TGI (TK-10 renal): > 84.1 µM
- GI50 (SW-620 colon): 0.612 µM
- TGI (SW-620 colon): > 47.6 µM
- GI50 (NCI-H226 lung): 9.81 µM
- TGI (NCI-H226 lung): > 96 µM
- GI50 (CCRF-CEM leukemia): 2.07 µM
- TGI (CCRF-CEM leukemia): 18.9 µM
- GI50 (NCI-H23 lung): 3.91 µM
- TGI (NCI-H23 lung): > 100 µM
- GI50 (NCI-H460 lung): 0.604 µM
- TGI (NCI-H460 lung): > 100 µM
- GI50 (EKVX NSCLC): 6.98 µM
- TGI (EKVX NSCLC): > 100 µM
- GI50 (SNB-19 CNS): 4.76 µM
- TGI (SNB-19 CNS): > 100 µM
- GI50 (HOP-92 NSCLC): 8.61 µM
- TGI (HOP-92 NSCLC): > 80.4 µM
- GI50 (MOLT-4 leukemia): 2.01 µM
- TGI (MOLT-4 leukemia): > 100 µM
- GI50 (HCT-116 colon): 0.736 µM
- TGI (HCT-116 colon): > 86.6 µM
- GI50 (M14 melanoma): 0.833 µM
- TGI (M14 melanoma): 30.4 µM
- GI50 (UACC-257 melanoma): 9.87 µM
- TGI (UACC-257 melanoma): > 100 µM
- GI50 (SF-295 CNS): 1.26 µM
- TGI (SF-295 CNS): > 100 µM
- GI50 (HCC-2998 colon): 1.8 µM
- TGI (HCC-2998 colon): 10.5 µM
- GI50 (OVCAR-5 ovarian): 12.7 µM
- TGI (OVCAR-5 ovarian): > 100 µM
- GI50 (RPMI-8226 leukemia): 1.4 µM
- TGI (RPMI-8226 leukemia): 6.19 µM
- GI50 (HT29 colon): 3.97 µM
- TGI (HT29 colon): > 47.3 µM
- GI50 (T-47D breast): 0.553 µM
- TGI (T-47D breast): > 100 µM
- TGI (MALME-3M melanoma): > 100 µM
- GI50 (PC-3 prostate): 0.963 µM
- TGI (PC-3 prostate): > 100 µM
- GI50 (MDA-MB-231 breast): 2.8 µM
- TGI (MDA-MB-231 breast): > 100 µM
- GI50 (RXF 393 renal): 0.795 µM
- TGI (RXF 393 renal): 3.76 µM
- GI50 (SN12C renal): 6.4 µM
- TGI (SN12C renal): > 100 µM
- GI50 (UACC-62 melanoma): 1.23 µM
- TGI (UACC-62 melanoma): > 49.9 µM
- GI50 (A498 renal): 2.57 µM
- TGI (A498 renal): 28.1 µM
- GI50 (SF-539 CNS): 1.37 µM
- TGI (SF-539 CNS): > 29.9 µM
- GI50 (LOX IMVI melanoma): 1.65 µM
- TGI (LOX IMVI melanoma): 45.3 µM
- GI50 (HCT-15 colon): 0.769 µM
- TGI (HCT-15 colon): > 100 µM
- GI50 (SK-MEL-5 melanoma): 0.514 µM
- TGI (SK-MEL-5 melanoma): 12.7 µM
- GI50 (ACHN renal): 5.05 µM
- TGI (ACHN renal): > 95.2 µM
- GI50 (DU-145 prostate): 2.05 µM
- TGI (DU-145 prostate): > 100 µM
- GI50 (786-0 renal): 2.62 µM
- TGI (786-0 renal): > 75.7 µM
- GI50 (SK-MEL-28 melanoma): 8.85 µM
- TGI (SK-MEL-28 melanoma): > 100 µM
- GI50 (K-562 leukemia): 0.439 µM
- TGI (K-562 leukemia): > 100 µM
- GI50 (A549 NSCLC): 3.41 µM
- TGI (A549 NSCLC): > 100 µM
- GI50 (SK-MEL-2 melanoma): 2.31 µM
- TGI (SK-MEL-2 melanoma): > 38.7 µM

Reference: PubChem BioAssay (NCI)
